US6506567B2, “Water-soluble flourescent intercalator compound” (Fuji Photo Film Co., Ltd., priority 2000, dated 2003)

Tests used:
Assay type in all cases: binding
[1] = tested on: calf thymus DNA (hybrid DNA); experiment: Detection of hybrid DNA fragment using fluorescent intercalator (fluorometry); details: intercalator 1 M; calf thymus DNA 100 μM; 5 mM phosphate buffer pH 7.0, sodium sulfate 5 mM; excitation 434 nm
Experimental: (§1) The fluorescent intercalator (1 M) prepared above was placed in an aqueous 5 mM phosphate buffer solution (pH 7.0) containing a calf thymus DNA (hybrid DNA, 100 μM) and sodium sulfate (5 mM). In the buffer solution, the fluorescent intercalator was intercalated into the hybrid DNA. The fluorescence emitted by the buffer solution containing the hybrid DNA having the intercalated fluorescent intercalator was fluorometrically measured in the wavelength region of 440 to 600 nm by exciting with a light of 434 nm.
(§2) The fluorescence emitted by the same buffer solution containing no calf thymus DNA (i.e., hybrid DNA) was also measured in the same manner.

[2] = tested on: calf thymus DNA (hybrid DNA); experiment: Rate of dissociation of intercalator from hybrid DNA (SDS addition, fluorescence over time); details: SDS final concentration 0.5 vol. %; same buffer solution as the fluorescence test
Experimental: (§3) To the buffer solution containing hybrid DNA and intercalator which was employed above was added an aqueous sodium dodecylsulfate (SDS) solution to give a final SDS concentration of 0.5 vol. %. After the SDS solution was added, variation of the fluorescence strength at a lapse of time was measured. From the variation data, the dissociation rate was determined. The dissociation rate was 0.02/sec.

[3] = tested on: single stranded DNA (calf thymus DNA heated to 90° C. for 20 min.); experiment: Fluorometry with single stranded DNA in place of hybrid DNA; details: procedures of Example 1, excitation 434 nm
Experimental: as §1, §2
(§4) The same calf thymus DNA (hybrid DNA) as employed in Example 1 was heated to 90° C. for 20 min., to give a single stranded DNA.
(§5) The procedures of Example 1 were repeated using thus prepared single stranded DNA in place of the hybrid DNA.

[4] = tested on: single stranded DNA (calf thymus DNA heated to 90° C. for 20 min.); experiment: Rate of dissociation of intercalator from single stranded DNA; details: determined in the same manner as in Example 1 (SDS 0.5 vol. %)
Experimental: as §3, §4, §5

Compound | fluorescence strength at 475 nm, buffer solution containing hybrid DNA relative to buffer solution containing no hybrid DNA [1] | dissociation rate from hybrid DNA [2] | fluorescence strength at 475 nm, buffer solution containing single stranded DNA relative to buffer solution containing no single stranded DNA [3] | dissociation rate from single stranded DNA [4]
COc1ccc2nc3cc(Cl)ccc3c(N)c2c1 [9-amino-6-chloro-2-methoxyacridine, reference compound] | approx. 6 times | 19.0 s⁻¹ |  | 
N,N-bis{3-[4-(3-(6-chloro-9-imino-2-methoxyacridinyl)propyl)-1,4-diazacyclohexyl]propyl}naphthalenediimide | not high |  |  | 
N-{3-[4-(3-( 6-chloro-9-imino-2-methoxyacridinyl)propyl)-1,4-diazacyclohexyl]propyl}-N′-{3-[4-(3-aminopropyl)-1,4-diazacyclohexyl]propyl}naphthalenediimide | approx. 30 times | 0.02 s⁻¹ | approx. 16 times | 1.2 s⁻¹
